{
  "source": "patent US20250026747A1",
  "about": "“COLIBACTIN DERIVATIVES AND METHODS OF TREATING, AMELIORATING, AND/OR PREVENTING CANCER” (priority 2021, published 2025)",
  "system": "γH2AX",
  "test": "Immunofluorescence assay of γH2AX foci in HeLa cells",
  "format": "cell-based, human",
  "details": "4 h treatment, 20 h further culture; for γH2AX foci formation: 1-100 μM; for number of positive cells for γH2AX foci: 11 μM, positive when >5 foci",
  "method": "FIGS. 7A-7B evaluates the Colibactin 742 (4) and its linear precursor 9 recapitulate the clb phenotype. […] HeLa cells were treated with the linear precursor 9 (1-100 μM), colibactin 742 (4) (1-100 μM) or MMC (150 nM) for 4 h. The cells were then washed and incubated for 20 h before immunofluorescence imaging. Cells were considered positive when >5 FANCD2 or γH2AX foci formed. Means and standard deviations of results from at least three independent experiments are shown. FIG. 7B depicts the DNA content histograms upon treatment with colibactin 742 (4, 11 μM) or 9 (11 μM) quantification of the sub-population of the histograms.\nThe present study then probed the DNA damage response that was activated following exposure to colibactin 742 (4) or its linear precursor 9. In mammalian cells, DNA interstrand cross-links (ICLs) are repaired by the Fanconi anemia pathway, and activation of this pathway is observed when eukaryotic cells are infected with clb^+ bacteria. Upon detection of an ICL, the Fanconi anemia protein D2 (FANCD2) is activated by monoubiquitinylation and recruited to the ICL to coordinate repair. Following initiation of repair, a double-strand break (DSB) is generated, which in turns triggers the formation of phospho-SER139-H2AX (γH2AX) nuclear foci. […] Consequently, the instant study probed for activation of FANCD2 and γH2AX by immunofluorescence imaging in cells treated with 4 or 9. Using conditions that closely mimic the bacterial coinfection experiments, the instant study treated HeLa cells with colibactin 742 (4) (1-100 μM), the linear precursor 9 (1-100 μM), or MMC (150 nM, higher concentrations of MMC reduced cell viability) for 4 h. The cells were then washed and cultured for a further 20 h. […] Thus, the synthetic compounds 4 and 9 induce a similar activation of the eukaryotic DNA damage response as clb^+ E. coli.\nCells were seeded at a density of 3500 cells per well to achieve total well volumes of 20 μL in 384-well plates (black with an optically clear bottom, Greiner Bio One 781091) using a Thermo Combidrop liquid dispenser. Cells were grown for 24 h, followed by the addition of test compounds using an Echo acoustic liquid handler (Labcyte). For each tested drug concentration, a 20 nL aliquot of the 1000× stock was added to 20 μL of cells to provide a final DMSO concentration of 0.1%. The compounds were incubated for 4 h at concentrations ranging from 1.2 μM to 100 μM in growth medium, at 37° C., 5% CO2. Each plate contained negative vehicle control wells (0.1% DMSO) and positive control wells (0.15 μM Mitomycin C, MMC). After 4 h incubation, the cells were washed once with Dulbecco's Phosphate-buffered solution (DPBS, Life Technologies), then fresh growth medium was added. The cells were incubated for 20 h, fixed, and subjected to immunofluorescence imaging.\nCells were fixed with 4% paraformaldehyde (PFA) (Electron Microscopy Sciences) in the presence of 0.02% Triton X-100 at room temperature (RT) for 20 min and then incubated in permeabilization/blocking solution [10% FBS and 0.5% Triton X-100 in phosphate-buffered saline (PBS)] at RT for 1 h. Primary antibodies were diluted 1:500 in permeabilization/blocking solution and used to stain cells at 4° C. overnight. […] Cells were imaged using the InCell 2200 Imaging System (GE Corp.) and analyzed using InCell Analyzer software (GE Corp.) to quantify the number of γH2AX and FANCD2 foci. Cells were counted as positive for focus formation when 5 foci/nucleus were detected.",
  "data": [
    {"compound": "C[C@H]1CCC(C2=C(CC(=O)NCC(=O)c3csc(CCc4csc(CNC(=O)CC5=C(C6=N[C@@H](C)CC6)C(=O)NC5(C)C)n4)n3)C(C)(C)NC2=O)=N1", "note": "[compound 22]", "values": [
      {"measurement": "γH2AX foci formation", "result": "did not induce"}
    ]},
    {"compound": "C[C@H]1CCC(CC(=O)NC2(C(=O)CC(=O)NCC(=O)c3csc(CCc4csc(CNC(=O)CC(=O)C5(NC(=O)CC6=N[C@@H](C)CC6)CC5)n4)n3)CC2)=N1", "note": "[compound 9]", "values": [
      {"measurement": "number of positive cells for γH2AX foci", "result": "four-fold increase"}
    ]},
    {"compound": "CCOC(=O)c1csc(CNC(=O)CC2=C(C3=N[C@@H](C)CC3)C(=O)NC23CC3)n1", "note": "[compound 23, reference compound]", "values": [
      {"measurement": "number of positive cells for γH2AX foci", "result": "induced significant γH2AX foci formation"},
      {"measurement": "number of positive cells for γH2AX foci (with respect to DMSO)", "setting": "33 μM", "result": "three-fold increase"}
    ]},
    {"compound": "CCOC(=O)c1nc(C2(O)CNC(=O)C2C2=C(C3=N[C@@H](C)CC3)C(=O)NC23CC3)cs1", "note": "(some centres unmarked) [compound 24]", "values": [
      {"measurement": "γH2AX foci formation", "result": "did not induce"}
    ]}
  ]
}
